In patent US7087717B2, “Sp110, a polypeptide component of the nuclear body” (The General Hospital Corporation, priority 2000, dated 2006):

Tests used:
[1] = tested on: human coronary artery smooth muscle cells (hCASMCs) and human umbilical vein endothelial cells (HUVECs); test: Sp110 mRNA expression after cytokine exposure; format: cell-based; conditions: 200 u/ml
Experimental: Sp110 expression was also examined in human coronary artery smooth muscle cells (hCASMCs) and human umbilical vein endothelial, cells (HUVECs) following exposure to IFNα (200 u/ml). Expression of Sp110 mRNA was induced within 4 hours and reached a maximum level between 8 and 24 hours.

NB4 cells = test: Sp110 mRNA level by RNA blot after cellular differentiation; format: cell-based, human; conditions: 1 μM, 48 hours
Experimental: To investigate the expression of Sp110 in cells of the monocyte/granulocyte lineage, RNA was prepared from the myeloid precursor cell lines HL60 and NB4 (HL60 cells are available from the American Type Culture Collection, Manassas, Va.). […] RNA was fractionated in formaldehyde-agarose gels (5 μg/lane) and equal loading of RNA was confirmed by staining 28S and 18S ribosomal RNA with ethidium bromide. […] Membranes were washed and analyzed by autoradiography. […] To examine the effect of cellular differentiation on Sp110 mRNA, NB4 cells were treated for 48 hours with all trans retinoic acid (ATRA) (1 μM).

| Compound | time to induction of Sp110 mRNA expression [1] | level of Sp110 mRNA (NB4 cells) |
| --- | --- | --- |
| IFNα | ≤ 4 h | – |
| CC1=C(/C=C/C(C)=C/C=C/C(C)=C/C(=O)O)C(C)(C)CCC1 [ATRA, all trans retinoic acid] | – | increased |
